pIC50: −log10 of the molar value. Where only a bound is given, the exact number is not on record here.

Data set [1] has as its system THP-1. Briefly: Inhibition of IL1-beta production in THP1 cells. Particulars: Homo sapiens. It is filed as functional, cell-based.
For data set [2], the target named is T1, Caspase-3 (Homo sapiens, UniProt P42574).
T1 sequence (P42574 whole entry): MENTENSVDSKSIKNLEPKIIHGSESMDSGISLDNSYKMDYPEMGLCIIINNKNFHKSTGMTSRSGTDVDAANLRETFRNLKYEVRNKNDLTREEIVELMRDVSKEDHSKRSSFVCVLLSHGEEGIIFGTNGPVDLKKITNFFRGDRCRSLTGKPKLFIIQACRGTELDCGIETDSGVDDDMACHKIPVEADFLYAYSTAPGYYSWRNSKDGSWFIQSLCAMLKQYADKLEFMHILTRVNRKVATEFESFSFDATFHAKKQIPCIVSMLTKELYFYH
Kind of data set: Inhibition of caspase 3.

Data set [3] has as its target T2, Caspase-1 (Homo sapiens, UniProt P29466).
T2 sequence (P29466 whole entry): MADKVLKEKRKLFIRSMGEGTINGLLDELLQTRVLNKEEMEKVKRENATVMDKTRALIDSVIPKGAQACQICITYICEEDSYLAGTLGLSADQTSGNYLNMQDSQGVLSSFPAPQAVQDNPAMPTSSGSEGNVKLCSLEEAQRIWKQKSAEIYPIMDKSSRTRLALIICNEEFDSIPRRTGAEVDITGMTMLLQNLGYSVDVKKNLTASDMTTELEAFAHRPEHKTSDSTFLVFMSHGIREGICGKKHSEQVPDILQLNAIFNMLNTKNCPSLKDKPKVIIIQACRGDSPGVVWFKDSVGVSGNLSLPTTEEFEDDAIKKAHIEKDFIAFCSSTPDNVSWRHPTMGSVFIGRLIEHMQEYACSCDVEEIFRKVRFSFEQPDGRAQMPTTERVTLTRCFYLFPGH
Kind of data set: Inhibition of ICE.

In data set [4] the target is Caspase-8 (Homo sapiens, UniProt Q14790). Kind of data set: Inhibition of caspase 8.
Chain of Caspase-8 (Q14790 217-374 limits assumed): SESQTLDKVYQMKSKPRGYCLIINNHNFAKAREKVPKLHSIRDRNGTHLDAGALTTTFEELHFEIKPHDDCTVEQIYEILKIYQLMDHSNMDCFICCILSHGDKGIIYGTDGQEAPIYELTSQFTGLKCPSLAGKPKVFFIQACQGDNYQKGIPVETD
Chain of Caspase-8 (Q14790 385-479 limits assumed): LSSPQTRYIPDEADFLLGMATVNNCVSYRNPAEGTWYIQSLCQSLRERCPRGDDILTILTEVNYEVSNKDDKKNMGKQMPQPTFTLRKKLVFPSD
Data set [5] can be described thus: Half life in Sprague-Dawley rat at 30 mg/kg, iv. It is filed as ADME, organism-based. Details: dose 30 mg/kg, route intravenous. As to conditions: in vivo.
Data set [6] can be described thus: Cmax in Sprague-Dawley rat at 30 mg/kg, po. Details: dose 30 mg/kg, route oral. Particulars: in vivo. It is filed as ADME, organism-based.
Data set [7] deals with Rattus norvegicus. Kind of data set: (§1) AUC (0 to infinity) in Sprague-Dawley rat at 30 mg/kg, po. As to conditions: in vivo. Also on record: time infinity, dose 30 mg/kg, route oral. The data set is classed as ADME, organism-based, Plasma.
Data set [8] relates to Rattus norvegicus. Briefly: (§2) Bioavailability in Sprague-Dawley rat at 30 mg/kg, po. The data set is classed as ADME, organism-based. Particulars: in vivo.
Data set [9] relates to Rattus norvegicus. Kind of data set: AUC (0 to infinity) in Sprague-Dawley rat at 30 mg/kg, iv. Details: time infinity, dose 30 mg/kg, route intravenous. It is filed as ADME, organism-based, Plasma. Particulars: in vivo.
Data set [10] is described as follows: Half life in Sprague-Dawley rat at 30 mg/kg, po. It is filed as ADME, organism-based. Also on record: dose 30 mg/kg, route oral. As to conditions: in vivo.
Data set [11] is described as follows: Cmax in Sprague-Dawley rat at 30 mg/kg, iv. Details: dose 30 mg/kg, route intravenous. Particulars: in vivo. The data set is classed as ADME, organism-based.
Data set [12] is described as follows: as §1. The data set is classed as ADME, organism-based, Plasma. Also on record: time infinity, dose 30 mg/kg, route oral. Particulars: Sprague-Dawley, plasma.
Data set [13] in a line: as §2. The data set is classed as ADME, organism-based. Particulars: Sprague-Dawley, in vivo.

For orientation: pIC50 means the negative decadic logarithm of the IC50, by convention in mol/L. In the case of `O=C(CN1CC(CO)=CC[C@H](NC(=O)c2ccc3ccccc3c2)C1=O)N[C@H]1CC(=O)OC1O` (some centres undefined), the negative-log IC50 (pIC50) in data set [1] is 6.27; in [2], below 5.00; in [3], 7.66; in [4], 5.68.

In the case of `O=C(CN1CC=CC[C@H](NC(=O)c2cc(Cl)ccc2Cl)C1=O)N[C@H]1CC(=O)OC1O` (some centres undefined), the pIC50 in data set [1] was 7.15; in data set [2] it was below 5.00; in data set [3], 7.82; in data set [4] it was 6.26.

Regarding `O=C(CN1CC=CC[C@H](NC(=O)c2nccc3ccccc23)C1=O)N[C@H]1CC(=O)OC1O` (some centres undefined), the pIC50 in data set [1] was 6.23; in data set [2] it was below 5.00; in data set [3], 7.57; in [4] it was 5.53.

As for `O=C(CN1CC(CSCc2ccccc2)=CC[C@H](NC(=O)c2ccc3ccccc3c2)C1=O)N[C@H]1CC(=O)OC1O` (some centres undefined), the pIC50 in [1] was 5.89; in data set [2] it was below 5.00; in data set [3], 8.10; in [4], 5.79.

For `COc1cccc(C(=O)NCC2=CC[C@H](NC(=O)c3ccc4ccccc4c3)C(=O)N(CC(=O)N[C@H]3CC(=O)OC3O)C2)c1` (some centres undefined), the pIC50 in [1] was 6.61; in [2] it was 5.97; in [3] it was 9.00; in data set [4], 6.35.

Take `C[C@@H](C(=O)N[C@H]1CC(=O)OC1O)N1CC=CC[C@H](NC(=O)c2ccc3ccccc3c2)C1=O` (some centres undefined): the pIC50 was 7.44 in [1], 5.12 in data set [2], 9.00 in data set [3] and 6.79 in [4].

Usually half-life stands for how long it takes for the measured level to halve. By Cmax is commonly meant the maximum level reached in the sampled fluid or tissue. The AUC is concentration integrated over time. Read a high AUC as more exposure. As to `O=C(CN1CC=CC[C@H](NC(=O)c2ccc3ccccc3c2)C1=O)N[C@H]1CC(=O)OC1O` (some centres undefined), the figures for the half-life in data set [5] and in data set [10] were 0.2 h and 1.3 h, respectively. Moreover, the negative-log IC50 (pIC50) in data set [1] is 7.00; in [2], below 5.00; in data set [3], 7.85; in data set [4] it was 5.67. For the same compound, the values for the Cmax in [6] and in [11] were 264 ng/mL and 6790 ng/mL, respectively. Further, the AUC in [7] came out at 320 ng·h/mL; in [9], 1970 ng·h/mL. In addition, in [8], the F is listed as 2%.

As for `COc1ccccc1C(=O)NCC1=CC[C@H](NC(=O)c2ccc3ccccc3c2)C(=O)N(CC(=O)N[C@H]2CC(=O)OC2O)C1` (some centres undefined), the pIC50 in data set [1] was 5.87; in data set [2], 5.47; in data set [3] it was 8.70; in data set [4], 6.05.

Broadly, the AUC(0-inf) is the area under the concentration-time curve extrapolated to infinity. Lower therefore signals low exposure. In general, bioavailability refers to dose-corrected exposure relative to a reference, in per cent. Turning to `CCOC1OC(=O)C[C@@H]1NC(=O)CN1CC=CC[C@H](NC(=O)c2ccc3ccccc3c2)C1=O` (some centres undefined), the Cmax in [6] stood at 9360 ng/mL. Further, the AUC(0-inf) in data set [12] was determined as 21000 ng·h/mL. The compound also had a bioavailability in data set [13] above 90%. For the same compound, the half-life in data set [10] is 3.4 h.

Regarding `O=C(CN1CC=CC[C@H](NC(=O)c2cccc(Cl)c2)C1=O)N[C@H]1CC(=O)OC1O` (some centres undefined), the pIC50 in data set [1] was 6.42; in data set [2], below 5.00; in data set [3] it was 7.54; in data set [4], 5.93.

In the case of `CCOC1OC(=O)C[C@@H]1NC(=O)CN1CC(CNC(=O)c2ccc(OC)cc2)=CC[C@H](NC(=O)c2ccc3ccccc3c2)C1=O` (some centres undefined), the Cmax in data set [6] is 9 ng/mL. In data set [12], this compound gave an area under the curve AUC(0-inf) of 30 ng·h/mL. For the same compound, the half-life in data set [10] was 7.1 h.

Take `C[C@H](C(=O)N[C@H]1CC(=O)OC1O)N1CC=CC[C@H](NC(=O)c2ccc3ccccc3c2)C1=O` (some centres undefined): the pIC50 in [1] is 6.06; in [2], below 5.00; in [3], 7.89; in [4], 6.27.

`O=C(CN1CC/C=C\C[C@H](NC(=O)c2nccc3ccccc23)C1=O)N[C@H]1CC(=O)OC1O` (some centres undefined) showed a pIC50 in data set [3] of 7.11.

In turn, `O=C[C@H](CC(=O)O)NC(=O)[C@@H]1CCCN2C(=O)CC[C@H](NC(=O)c3nccc4ccccc34)C(=O)N12` [VRT-18858] showed a pIC50 in [3] of 8.40.

For `COc1ccc(C(=O)NCC2=CC[C@H](NC(=O)c3ccc4ccccc4c3)C(=O)N(CC(=O)N[C@H]3CC(=O)OC3O)C2)cc1` (some centres undefined), the pIC50 was 7.02 in data set [1], 5.95 in data set [2], 9.00 in data set [3] and 6.33 in data set [4].

For `O=C(CN1CC=CC[C@H](NC(=O)c2cccc(C(F)(F)F)c2)C1=O)N[C@H]1CC(=O)OC1O` (some centres undefined), the pIC50 was 6.26 in data set [1], below 5.00 in [2], 7.96 in data set [3] and 5.71 in data set [4].

Turning to `CC1=CC[C@H](NC(=O)c2ccc3ccccc3c2)C(=O)N(CC(=O)N[C@H]2CC(=O)OC2O)C1` (some centres undefined), the pIC50 in data set [1] was 6.82; in [2], below 5.00; in [3], 7.72; in [4], 5.57.

On to `O=C(CN1CC(CNS(=O)(=O)c2ccccc2)=CC[C@H](NC(=O)c2ccc3ccccc3c2)C1=O)N[C@H]1CC(=O)OC1O` (some centres undefined), for which the pIC50 was 6.49 in [1], 5.17 in data set [2], 8.52 in data set [3] and 6.96 in data set [4].

`COc1cccc(C(=O)N[C@H]2CC=CCN(CC(=O)N[C@H]3CC(=O)OC3O)C2=O)c1` (some centres undefined): the pIC50 in data set [1] was 5.91; in data set [2], below 5.00; in data set [3], 7.28; in data set [4], 5.91.

On to `O=C(CN1CC(CNCc2ccccc2)=CC[C@H](NC(=O)c2ccc3ccccc3c2)C1=O)N[C@H]1CC(=O)OC1O` (some centres undefined), for which the negative logarithm of the IC50 (pIC50) in [1] is 6.63; in data set [2] it was below 5.00; in data set [3], 8.15; in [4] it was 5.00.

`O=C[C@H](CC(=O)O)NC(=O)[C@@H]1CC[C@@H]2C/C=C\C[C@H](NC(=O)c3nccc4ccccc34)C(=O)N21`: the pIC50 is 6.73 in [1] and 8.40 in data set [3].

In the case of `O=C[C@H](CC(=O)O)NC(=O)[C@@H]1COC[C@@H]2C/C=C\C[C@H](NC(=O)c3nccc4ccccc34)C(=O)N21`, the pIC50 in data set [1] was 6.74; in data set [3] it was 8.52.

On to `O=C(CN1CC(CNC(=O)c2ccccc2)=CC[C@H](NC(=O)c2ccc3ccccc3c2)C1=O)N[C@H]1CC(=O)OC1O` (some centres undefined), for which the negative logarithm of the IC50 (pIC50) was 6.33 in [1], 5.77 in [2], 8.70 in [3] and 5.96 in data set [4].

As to `CCOC1OC(=O)C[C@@H]1NC(=O)[C@H](C)N1CC=CC[C@H](NC(=O)c2ccc3ccccc3c2)C1=O` (some centres undefined), in data set [6], the highest concentration (Cmax) amounted to 720 ng/mL. Further, the AUC(0-inf) in data set [12] is 4530 ng·h/mL. The compound also showed a half-life in data set [10] of 5.1 h.

Regarding `O=C(CN1CC=CC[C@H](NC(=O)c2cc3ccccc3s2)C1=O)N[C@H]1CC(=O)OC1O` (some centres undefined), the negative logarithm of the IC50 (pIC50) in data set [1] is 6.15; in [2], below 5.00; in [3] it was 7.70; in data set [4], 5.84.

On to `O=C(CN1CC=CC[C@H](NC(=O)c2ccccc2)C1=O)N[C@H]1CC(=O)OC1O` (some centres undefined), for which the pIC50 in data set [1] is 5.97; in [2] it was below 5.00; in data set [3], 6.77; in data set [4], 5.38.
